Reference: patent US20250026741A1, “INHIBITORS OF THE ONCOGENIC SHP2 PHOSPHATASE AND USES THEREOF” (Sanford Burnham Prebys Medical Discovery Institute, priority 2021, published 2025)
Like-named read-outs stand apart in the source and are kept apart here.

Assays:
[1] = molecular target: full-length SHP2-E76K oncogenic mutant (Homo sapiens (Human), UniProt Q06124, E76K); experiment: DiFMUP fluorescence intensity phosphatase inhibition assay, SHP2-E76K; type: biochemical
From the text: (§1) To test the synthesized compounds for their potential to inhibit SHP2 activity, a fluorescence intensity-based assay using 6,8-difluoro-4-methylumbelliferyl phosphate (DiFMUP) as the substrate was adapted for three recombinant SHP2 constructs: 1) the SHP2 catalytic domain (SHP2cat; residues 248-527), 2) the full-length SHP2-E76K oncogenic mutant, and 3) the full-length SHP2 wild-type (SHP2-WT). The recombinant SHP2 proteins were expressed and purified. A dually phosphorylated peptide derived from the insulin receptor substrate 1 (IRS-1) served as a surrogate binding protein and was used to activate SHP2-WT. […] Michaelis-Menten experiments to determine the DiFMUP Michaelis-Menten constant (Kmn) for each SHP2 construct were performed and yielded the following values: SHP2-WT, Km=60 μM; SHP2-E76K, Km=20 μM; SHP2cat, Km=20 μM. Relative maximum rates (Vmax) of the DiFMUP reactions were as follows: SHP2-WT, Vmax=871 AFU/min; SHP2-E76K, Vmax, =2730 AFU/min; SHP2cat, Vmax=2912 AFU/min. IC50 values for each compound were determined from initial rates in 10-point dose-response assays using DiFMUP at a concentration corresponding to its Km value for the respective SHP2 construct.
(§2) SHP2 inhibitors were tested at room temperature (RT) in a 384-well plate format standard phosphatase fluorescence intensity assay using DiFMUP (Invitrogen/Thermo Fisher Scientific, Carlsbad, CA) as a substrate and a total reaction volume of 25 μL. SHP2 inhibitors or vehicle (DMSO) were spotted in triplicate into a black Greiner FLUOTRAC™ 200 384-well microplate (#781076, Greiner) for a 10-point dose-response assay using an Echo®555 Liquid Handler (Labcyte, Inc., San Jose, CA). PTP working solutions were prepared at a 0.625 nM concentration (for a final concentration of 0.5 nM) in buffer containing 50 mM Bis-Tris pH 6.0, 50 mM NaCl, 5 mM DTT, and 0.01% Tween® 20. Prior to the assay, a dually phosphorylated insulin receptor substrate 1 (IRS-1) peptide [625 nM (500 nMfinal) (30)] was added to full-length WT SHP2 working solutions and incubated for 20 min. DiFMUP working solutions at 5× final concentration were prepared in 50 mM Bis-Tris pH 6.0, 50 mMNaCl, and 0.01% Tween 20. 20 μL of PTP working solution was dispensed into the microplate and incubated with inhibitor for 20 min at RT. […] The reaction was initiated by addition of 5 μL DiFMUP working solutions. Fluorescence intensity was measured in kinetic mode (every minute for 7 or 10 min) using a Tecan Spark® Multimode Microplate Reader (Tecan, Groedig, Austria) with an excitation wavelength of 360 nm and an emission wavelength of 460 nm. The initial rates were determined from the linear progression curves of the PTP reaction. The nonenzymatic hydrolysis of the substrate was corrected by using a control without addition of enzyme. IC50 values were calculated from the corrected initial rates by nonlinear regression using the program GraphPad Prism (GraphPad Software, Inc., San Diego, CA) Version 8. Dose-response inhibition assays of SHP2cat using the substrate OMFP were performed similarly as described above for DiFMUP. OMFP was used at a concentration corresponding to its Km value for SHP2cat (50 μM final). Fluorescence intensity was measured in kinetic mode (every minute for 10 min) using a Tecan Spark Multimode Microplate Reader with an excitation wavelength of 485 nm and an emission wavelength of 535 nm. Initial rates were determined and IC50 vales calculated as described above.

[2] = molecular target: full-length SHP2 wild-type (SHP2-WT) (Homo sapiens (Human), UniProt Q06124); experiment: DiFMUP fluorescence intensity phosphatase inhibition assay, SHP2-WT activated with IRS-1 peptide; type: biochemical; conditions: DiFMUP at Km (60 μM), IRS-1 peptide activated
From the text: as §1, §2

[3] = system: Kasumi-1 acute myeloid leukemia (AML) cells; experiment: Cell viability assay (CellTiter-Glo), Kasumi-1; type: cell-based; conditions: Kasumi-1 cells, various concentrations, 3 d
From the text: (§3) Inhibition of SHP2 has been reported to inhibit the growth of cancer cells including Kasumi-1 acute myeloid leukemia (AML) and KYSE-520 esophageal cancer cells. […] Cell viability is shown as a percentage of the vehicle (DMSO) control and represents the mean±SD. B) #02 dose-response curves in cell viability assays using Kasumi-1, KYSE-520, MOLM-13, and […] cells after 3 d in culture. The percentages compared to DMSO vehicle control were curve fitted using nonlinear regression (log[inhibitor] vs. normalized response, variable slope) and represent the mean±SD. C) Cell viability of […] and MDA-MB-468 triple-negative breast cancer (TNBC) cells in the presence of various concentrations of #02 or the SHP2 allosteric inhibitor SHP099 after 5 d in culture. Cell viability is shown as a percentage of DMSO vehicle control, representing mean±SD, and curve fitted as in B). D) Colony formation assay (11 d) of […] and MDA-MB-468 TNBC cells in the presence of various concentrations of #02 or the SHP2 allosteric inhibitor SHP099. E) Phospho-ERK1/2 (p-ERK1/2) immunoblot analysis from total cell lysates of MOLM-13 AML cells treated with #02 at the indicated concentrations, or with SHP2 allosteric inhibitor RMC-4550 (RMC, 1 μM) for 3 h or 24 h. The quantitation of p-ERK1/2 levels is shown as the percentage of the DMSO (vehicle) control and represents data from three independent experiments (mean±SD). F) Viability of AML patient-derived cells in the presence of 10 μM #02 or 10 μM SHP2 allosteric inhibitor RMC-4550 after 2 d, 4 d, or 6 d in culture. Cell viability is shown as a percentage of the DMSO vehicle control and represents the mean±SD (*p<0.05; **p<0.01; ****p<0.0001; unpaired test with Welch's correction) G) Viability of MOLM-13 cells and MOLM-13-Cas9-mCherry cells with SHP2 knockout (KO) in the presence of #01, #02, and allosteric inhibitor SHP099 at various concentrations (10-point dose-response). The percentages compared to the DMSO vehicle control were curve fitted using nonlinear regression (log[inhibitor] vs. normalized response, variable slope) and represent the mean±SD. SHP2 protein levels in regular MOLM-13 cells (WT), MOLM-13-Cas9-mCherry cells (Cas9), and MOLM-13-Cas9-mCherry cells with SHP2 KO (SHP2 KO) were evaluated by immunoblot analysis using SHP2 antibodies.
(§4) Viability of AML, esophageal carcinoma, and TF-1 cells was assessed using the ATP-depletion assay CellTiter-Glo® (Promega). Cells were harvested at 1×10^6/mL to 2×10^6 cells/mL with cell numbers determined by trypan blue using the Countess Cell counter (Thermo Scientific) and resuspended in culture media. […] Luminescence was read on a Tecan Spark® Multimode Microplate Reader and data analyzed using Graph Pad Prism software.

[4] = system: KYSE-520 esophageal cancer cells; experiment: Cell viability assay (CellTiter-Glo), KYSE-520; type: cell-based; conditions: KYSE-520 cells, various concentrations, 3 d
From the text: as §3, §4

[5] = molecular target: SHP2 catalytic domain (SHP2cat; residues 248-527) (Homo sapiens (Human), UniProt Q06124); experiment: DiFMUP fluorescence intensity phosphatase inhibition assay, SHP2cat; type: biochemical
From the text: as §1, §2

[6] = molecular target: PTP1B catalytic domain (Homo sapiens (Human), UniProt P18031); experiment: DiFMUP phosphatase inhibition assay, PTP1B; type: biochemical; conditions: catalytic domain, DiFMUP at Km (25 μM)
Experimental: (§5) Selectivity is one of the biggest challenges in PTP inhibitor development. […] Similar to SHP2, we adapted a 384-well plate format DiFMUP assay for recombinant PTP1B and STEP and performed Michaelis-Menten experiments to determine DiFMUP Km values for each phosphatase. IC50 values of our inhibitors for PTP1B and STEP were determined in 10-point dose-response assays with DiFMUP used at the concentration corresponding to the respective Km value. […] Other inhibitors with good relative selectivity for SHP2 included #02 (13-fold selective over PTP1B; 73-fold selective over STEP) and #05 (5-fold selective over PTP1B; >71-fold selective over STEP).
as §2

[7] = molecular target: striatal-enriched tyrosine phosphatase (STEP) catalytic domain (Homo sapiens (Human), UniProt P54829); experiment: DiFMUP phosphatase inhibition assay, STEP; type: biochemical; conditions: catalytic domain, DiFMUP at Km (4 μM)
Experimental: as §5, §2

[8] = DiFMUP at Km (20 μM), 10-point dose-response, read-out: SHP2-E76K IC50
[9] = DiFMUP at Km (20 μM), read-out: SHP2cat IC50

Chain of full-length SHP2-E76K oncogenic mutant (Q06124 whole entry E76K, the tested form may be a part): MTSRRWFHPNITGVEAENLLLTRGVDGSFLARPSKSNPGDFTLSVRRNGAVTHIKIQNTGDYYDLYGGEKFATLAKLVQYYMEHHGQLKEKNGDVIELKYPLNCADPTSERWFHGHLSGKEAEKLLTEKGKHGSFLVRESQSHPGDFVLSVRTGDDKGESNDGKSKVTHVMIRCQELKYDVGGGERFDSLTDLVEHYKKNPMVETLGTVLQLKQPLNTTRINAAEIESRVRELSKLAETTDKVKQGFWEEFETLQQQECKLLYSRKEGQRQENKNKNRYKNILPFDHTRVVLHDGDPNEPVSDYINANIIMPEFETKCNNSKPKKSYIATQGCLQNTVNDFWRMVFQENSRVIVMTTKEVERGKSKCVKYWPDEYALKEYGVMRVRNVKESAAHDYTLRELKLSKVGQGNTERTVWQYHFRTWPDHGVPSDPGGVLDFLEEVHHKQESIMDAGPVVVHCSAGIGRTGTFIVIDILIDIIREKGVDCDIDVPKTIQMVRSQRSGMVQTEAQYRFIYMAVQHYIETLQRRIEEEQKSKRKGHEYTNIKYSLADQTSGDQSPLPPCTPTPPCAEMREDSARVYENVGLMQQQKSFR
Chain of SHP2 catalytic domain (SHP2cat; residues 248-527) (Q06124 248-527): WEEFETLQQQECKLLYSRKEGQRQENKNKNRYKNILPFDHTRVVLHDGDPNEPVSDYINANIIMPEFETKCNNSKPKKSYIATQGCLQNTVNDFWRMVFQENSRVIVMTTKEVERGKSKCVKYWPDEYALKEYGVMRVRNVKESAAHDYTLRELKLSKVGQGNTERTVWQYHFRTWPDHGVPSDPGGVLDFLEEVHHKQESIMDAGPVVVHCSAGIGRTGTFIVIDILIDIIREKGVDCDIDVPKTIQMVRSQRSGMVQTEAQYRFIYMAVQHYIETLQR
Chain of PTP1B catalytic domain (P18031 1-300): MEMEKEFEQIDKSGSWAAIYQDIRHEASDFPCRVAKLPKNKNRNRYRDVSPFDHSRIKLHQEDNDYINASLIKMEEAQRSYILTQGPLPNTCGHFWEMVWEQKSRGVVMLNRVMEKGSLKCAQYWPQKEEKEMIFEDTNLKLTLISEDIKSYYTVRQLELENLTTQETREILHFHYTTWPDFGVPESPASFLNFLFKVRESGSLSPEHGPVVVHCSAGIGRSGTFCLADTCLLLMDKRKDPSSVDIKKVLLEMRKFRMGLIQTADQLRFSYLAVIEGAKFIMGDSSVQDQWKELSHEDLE
Chain of striatal-enriched tyrosine phosphatase (STEP) catalytic domain (P54829 280-565 limits assumed): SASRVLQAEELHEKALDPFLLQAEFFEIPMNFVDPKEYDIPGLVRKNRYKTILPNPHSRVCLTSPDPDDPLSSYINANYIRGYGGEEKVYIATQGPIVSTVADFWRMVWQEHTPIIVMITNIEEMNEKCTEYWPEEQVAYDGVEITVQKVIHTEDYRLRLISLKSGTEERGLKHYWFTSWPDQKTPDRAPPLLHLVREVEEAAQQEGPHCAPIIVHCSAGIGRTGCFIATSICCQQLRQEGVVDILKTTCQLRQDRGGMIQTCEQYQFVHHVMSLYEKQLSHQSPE

Structure (SMILES) | IC50 [1, 8] | IC50 ([1]; inactive analog used as negative control, SHP2 construct not specified, read-out: SHP2 IC50) | IC50 [2] | IC50 [5, 9] | IC50 ([5]; catalytic domain, DiFMUP at Km, read-out: SHP2 IC50) | IC50 [6] | IC50 [7] | effect on cancer cell growth [3] | effect on cancer cell growth [4]
O=C(/C=C/c1ccc(-c2ccc(O)c(C(=O)O)c2)o1)c1cccc(C(=O)/C=C/c2ccc(-c3ccc(O)c(C(=O)O)c3)o2)c1 [#43] | ≤ 1 µM |  | 1 to 20 µM | ≤ 1 µM |  |  |  |  | 
O=C1CCC/C1=C\c1ccc(-c2ccc(O)c(C(=O)Nc3ccccc3)c2)o1 [#03, 2-Hydroxy-5-(5-((2-oxocyclopentylidene)methyl)furan-2-yl)-N-phenylbenzamide] | 1 to 20 µM |  | 1 to 20 µM | 1 to 20 µM | 1.1 µM | 1.9 µM | 27 µM |  | 
O=C(O)c1cc(-c2ccc(/C=C3\Cc4ccccc4C3=O)o2)ccc1O [#09, 2-Hydroxy-5-(5-((1-oxo-1,3-dihydro-2H-inden-2-ylidene)methyl)furan-2-yl)benzoic acid] | 1 to 20 µM |  | 1 to 20 µM | 1 to 20 µM |  |  |  |  | 
N#Cc1cccc(-c2ccc(/C=C/C(=O)/C=C/c3ccc(-c4cccc(C#N)c4)o3)o2)c1 [#46] | 1 to 20 µM |  | 1 to 20 µM | 1 to 20 µM |  |  |  |  | 

Continued, in another order:

IC50 [1, 8] | IC50 ([1]; inactive analog used as negative control, SHP2 construct not specified, read-out: SHP2 IC50) | IC50 [2] | IC50 [5, 9] | IC50 ([5]; catalytic domain, DiFMUP at Km, read-out: SHP2 IC50) | IC50 [6] | IC50 [7] | Structure (SMILES) | effect on cancer cell growth [3] | effect on cancer cell growth [4]
≥ 100 µM | > 100 µM | ≥ 100 µM |  |  |  |  | CC(C)NC(=O)c1cccc(-c2ccc(/C=C3\Sc4ccccc4C3=O)o2)c1 [#20, (Z)—N-Isopropyl-3-(5-((3-oxobenzo[b]thiophen-2(3H)-ylidene)methyl)furan-2-yl)benzamide] | no notable effects | no notable effects
1 to 20 µM |  | 20 to 100 µM | 1 to 20 µM |  |  |  | O=C1/C(=C/c2ccc(-c3ccc(O)c(C(=O)N4CCCCC4)c3)o2)Sc2ccccc21 [#12, (Z)-2-((5-(4-Hydroxy-3-(piperidine-1-carbonyl)phenyl)furan-2-yl)methylene)benzo[b]thiophen-3(2H)-one] |  | 
1 to 20 µM |  | 1 to 20 µM | 1 to 20 µM |  |  |  | Nc1cccc(NC(=O)c2cc(-c3ccc(/C=C4\Sc5ccccc5C4=O)o3)ccc2O)c1 [#08, (Z)—N-(3-aminophenyl)-2-hydroxy-5-(5-((3-oxobenzo[b]thiophen-2(3H)-ylidene)methyl)furan-2-yl)benzamide] |  | 
